Data: patent US20100222294A1, “Formulations of ATP and Analogs of ATP” (priority 2009, published 2010)
Read-outs that look alike come from different tables or passages of the source.

Assay type: physicochemical
Method: An aqueous solution containing the following components was made:
10 mg/ml of adenosine 5′-triphosphate disodium salt (anhydrous) (18.15 mM)
1 mg/ml of glycine (13.32 mM)
Sodium hydroxide (sufficient to adjust pH to 9.2-9.3)
Water sufficient to result in the above concentrations of adenosine 5′-triphosphate disodium salt (anhydrous), glycine, and 36 mg/ml of Na2HPO4.7H2O.
Below (in Table 2) are shown the relative amounts of ADP in the solution aliquots at the various time points. The data shown are concentrations of ADP as a percentage of the concentrations of ATP in the solution aliquots. The pH of the 72 month time point sample was 8.8.

Nc1ncnc2c1ncn2[C@@H]1O[C@H](COP(=O)([O-])OP(=O)([O-])OP(=O)(O)O)[C@@H](O)[C@H]1O.[Na+].[Na+] [ATP, adenosine 5′-triphosphate disodium salt (anhydrous)]
Relative amount of ADP ([ADP]/[ATP] × 100) (0 months storage (immediately after making), 10 mg/ml ATP disodium, 1 mg/ml glycine, 36 mg/ml Na2HPO4.7H2O, pH 9.2-9.3): 0.35% | Relative amount of ADP ([ADP]/[ATP] × 100) (1 month storage at about 4° C. to about 8° C., same solution): 0.42% | Relative amount of ADP ([ADP]/[ATP] × 100) (3 months storage at about 4° C. to about 8° C., same solution): 0.48% | Relative amount of ADP ([ADP]/[ATP] × 100) (6 months storage at about 4° C. to about 8° C., same solution): 0.57% | Relative amount of ADP ([ADP]/[ATP] × 100) (12 months storage at about 4° C. to about 8° C., same solution): 0.72% | Relative amount of ADP ([ADP]/[ATP] × 100) (24 months storage at about 4° C. to about 8° C., same solution): 1.15% | Relative amount of ADP ([ADP]/[ATP] × 100) (36 months storage at about 4° C. to about 8° C., same solution): 1.4% | pH of the solution after storage (72 month time point sample, initial pH 9.2-9.3): 8.8 | Relative amount of ADP ([ADP]/[ATP] × 100) (72 months (6 years) storage at about 4° C. to about 8° C., same solution): 2.9% | Stability of alkaline solution of ATP (duration) (alkaline solution): stable for at least six years | Presence of other ATP degradation (hydrolysis) products (AMP and adenosine) (all time points 0 to 72 months, about 4° C. to 8° C., HPLC): significant levels of neither were detectable at any of the time points
